Test results reported in patent publication US20160340683A1, “NANOCARRIER BASED PLANT TRANSFECTION AND TRANSDUCTION” (HER MAJESTY THE QUEEN IN RIGHT OF CANADA AS REPRESENTED BY …, priority 2007, published 2016).
“Also recorded” adds a separate entry of the source. fluorescein = fluorescein label at the N-terminus

Legend:
[1] = test system: Triticale microspores; test: DNA-protein co-delivery in microspores, GUS histochemical assay of embryos; format: cell-based; conditions: 2 months after transfection
Description: Triticale tillers for microspore isolation were kept in the refrigerator (4° C.) for 3 weeks with their bases in distilled water and their heads wrapped in aluminum foil. After 3 weeks±3 days, the mid to late uninucleate microspore stage was verified from a median floret using acetocarmine staining prior to extraction. Isolated microspore was carried in Triticale as published in Eudes and Amundsen (2005) for obtaining purified microspore suspension adjusted to 2.5×10^5 cells per ml of NPB99 medium.
The plasmid (pAct-1 GUS, ˜7.2 kb) was linearized with PstI restriction enzyme and DNA was purified by PCR product purification kit (QIAquick, Qiagen, USA). The GUS DNA was delivered following 7 different treatments (T). […]

[2] = test system: isolated microspores of Triticale (variety Sunray); test: CPP delivery of GUS enzyme into isolated microspores, GUS staining; format: cell-based; conditions: GUS enzyme cargo:CPP 1:4, 1 hour at 37° C., three repeats
Description: Triticale line Sunray grown in a growth cabinet with a photoperiod of 19 h day (intensity 300 μE m-2 s-1), and temperature 18-15° C. (day-night) with a relative humidity at about 70% was used as the donor plant material. The plants were fertilized every 2 weeks (20-20-20, 200 ppm) and treated with 2.5 ml I-1 Tilt™ (propiconazole, Syngenta) during the tillering stage and Intercept™ (0.004 g per litre of soil, Imidacloprid, Bayer) once sufficient root development was established. The first 10 tillers from each pot were harvested when the spike was at 3-4 cm, depending on the crop, from emergence from the boot. These tillers (to be used for microspore isolation) were subjected to pre-treatment in a refrigerator (4° C.) for 21 days with their bases in distilled water and their heads wrapped in aluminum foil. After 21±3 days of pre-treatment, the spikes were excised from their tillers and after an evaluation of their general appearance, only the most homogenous spikes were used. After confirming microspores at mid to bi-nucleate stage from a median floret, using acetocarmine staining, the tillers were processed for extraction.
Awns were removed with scissors in a laminar flow hood. Eight-fourteen spikes were used for microspore isolation. They were sterilized with 10% bleach (5.25% sodium hypochlorite) for 3 min followed by rinsing in sterile double distilled water four times of 1 min each with constant agitation. Outer glumes were removed and florets from all the spikes were aseptically dissected and transferred to a sterile and refrigerated 110 ml Warring blender cup (VWR international, #58983-093) containing 50 ml filter sterilized extraction buffer at 4° C. Florets were then blended twice for 7 s at low speed (18000 rpm). The slurry was then poured through a 1 mm sieve followed by pouring through a 100 μm sterile mesh (VWR International, #CA21008-950) into two 50 ml centrifuge tubes (25 ml each). The blender cup was rinsed with 50 ml extraction buffer at 4° C. and poured through the 100 μm mesh and was added to the first aliquot in the 50 ml tubes. The cells were then pelleted by centrifugation (100×g for 5 min at 4° C.) using a swinging bucket rotor. After pouring off the supernatant, the microspore-containing pellets were pooled together in one 50 ml tube and re-suspended in 50 ml cold extraction buffer. The cells were pelleted again with centrifugation (100×g for 5 min at 4° C.), the supernatant poured off and the pellet was transferred to a 15 ml tube. After re-suspending the pellet in CIMC Wash Buffer supplemented with 10 microM SS-31 peptide, it was subjected to wash and centrifugation using the above conditions. The supernatant was removed and the pellet was re-suspended in CIMC Wash buffer and centrifugation was repeated as above. The pellet was then suspended in 7 mL of 20% maltose at 4° C., layered with 1 mL of CIMC wash buffer and was centrifuged at 100 g for 13 min at 4° C. A band of microspores formed at the interface was collected in a new 15 ml tube. The cells were diluted with CIMC wash solution and subsequently collected by centrifugation at 150 g for 5 min. The supernatant was removed and the cells were finally suspended in a total volume of 1.4 ml of appropriate solution. After counting the cells using a haemocytometer, aliquots of 100,000 cells in 200 μl volume were prepared in 2 ml microcentrifuge tubes to be ready for transduction.
Peptide stock solutions were made in water at 1 μg/μl concentration. CPP (Nanocarrier) and GUS enzyme (cargo) were first prepared in separate microcentrifuge tubes. A total of 4 μg of CPP was prepared in sterile water to a final volume of 100 μl. Similarly, 1 μg of GUS enzyme was added to sterile water to a final volume of 100 μl. The contents of the two tubes were mixed together giving a ratio of 1:4 protein cargo:CPP. The complex was incubated for 30 min at room temperature (RT). Chariot (PAP1) protein delivering reagent was used as a positive control in the experiments. […]

[3] = test system: immature embryos; test: Translocation of fluoresceinated CPPs in zygotic embryos, fluorescence microscopy; format: cell-based, Triticale cv AC Alta
Description: (§1) The embryos were isolated from spikes two weeks post-anthesis (scutellum diameter 1-2 mm). The immature seeds were surface sterilized with 70% ethanol for 30 s followed by treatment with 10% hypochlorite (Chlorex) and a drop of Tween 20, 3 min. Four washings of 1 min each were given with sterile water. The embryos were hand dissected under sterile conditions. Isolated embryos were placed on GEM medium (Eudes et al, 2003) for 24 h in dark at room temperature prior to CPP translocation studies.
Isolated and sterilized embryos (20-25) were imbibed in total volume of 420 μl permeabilization buffer (15 mM sodium chloride, 1.5 mM sodium citrate, pH 7.1) containing cellular permeabilization agent toluene/ethanol (1:4) in 1:20 ratio with permeabilization buffer. To this 2.1 μl of 1 mM fluoresceinated CPP was added to give a final concentration of 5 μM. In negative controls, the embryos were treated with FITC-dextran sulphate or M-Tat. The embryos were incubated in the permeabilization mix for 1 h in dark at room temperature, followed by two washings with permeabilization buffer. The embryos were then treated with trypsin:EDTA (0.25% solution, Sigma-Aldrich) in 1:2 ratio with permeabilization buffer for 5 min at room temperature to remove free peptide molecules. Embryos were washed two times with permeabilization buffer and subjected either for fluorescence microscopy or spectrofluorimetric analysis.

[4] = test system: isolated microspores; test: Uptake of fluoresceinated Tat by isolated microspores; format: cell-based; conditions: no permeabilization
Description: However, permeabilization is not necessary for all cell types. FIG. 2 illustrates the uptake of fluoresceinated Tat by isolated microspores.
Isolated microspores were prepared as described by Amundsen and Eudes, 2005.

[5] = test system: immature embryos; test: Fluorimetry analysis of relative fluorescence uptake by embryos; format: cell-based, Triticale cv AC Alta; conditions: permeabilized and non-permeabilized embryos
Description: as §1
Isolated and sterilized embryos (20-25) were imbibed in total volume of 420 μl permeabilization buffer (15 mM sodium chloride, 1.5 mM sodium citrate, pH 7.1) containing cellular permeabilization agent toluene/ethanol (1:4) in 1:20 ratio with permeabilization buffer. To this 2.1 μl of 1 mM fluoresceinated CPP was added to give a final concentration of 5 μM. […] Embryos were washed two times with permeabilization buffer and subjected either for fluorescence microscopy or spectrofluorimetric analysis.
For fluorimetric analysis, the embryos were treated with 500 μl of 1% Triton X-100 (prepared in permeabilization buffer), 30 min, at 4° C. The supernatant was collected in a fresh tube and relative fluorescence uptake by the embryos with different CPPs was estimated by fluorimeter (Biorad, Versafluor, USA Excitation 490/Emission 520).

[6] = test system: root tip, leaf tip, leaf base and coleoptile; conditions: 5 μM fluorescently labeled peptide
Description: Triticale seeds were washed with detergent and grown on moist cotton for one week. The root tip, leaf tip, leaf base and coleoptile were excised and incubated with 5 μM of fluorescently labeled pVEC, scrambled pVEC and transportan.

Substance: RKKRRQRRRRKKRRQRRR (TAT2) [18 amino acid dimer of the PTD of HIV Tat, reference compound]
- Highest numbers of embryos that showed GUS [1]: 25.8%
- Average Transduction Efficiency [2]: 17.50%

Substance: FI-RKKRRQRRR-amide (fluorescein-RKKRRQRRR-NH2) [TAT-PTD]
- Uptake seen by fluorescence microscopy (FIG. 1) ([3]; in the presence of cellular permeabilizing agent (toluene)): most significant uptake; also recorded: distinct layer of accumulation in the scutellum and localized accumulation in the germ area
- Uptake seen by fluorescence microscopy (FIG. 1) ([3]; without cellular permeabilizing agent): some fluorescence
- Uptake of fluoresceinated peptide by isolated microspores (FIG. 2) [4]: can penetrate into cells

Substance: FI-GWTLNSAGYLLGKINLKALAALAKKIL-amide [Transportan]
- Translocation by fluorimetric analysis compared with visual observation [5]: relatively greater translocation
- Fluorescence in excised seedling tissues [6]: maximum florescence
